Ends that are not written are not given here.
Experiments:
human Orexin-2 receptor = target: T1, human Orexin-2 receptor (Homo sapiens, UniProt O43614); assay: Antagonist affinity at human Orexin-2 receptor using FLIPR ([Ca2+]i); assay type: cell-based; conditions: functional pKi from IC50 by modified Cheng-Prusoff correction, read-out: fpKi Orexin 2 receptor (converted)
T1 construct: expressed in transfected cells
T1 sequence (O43614 1-444): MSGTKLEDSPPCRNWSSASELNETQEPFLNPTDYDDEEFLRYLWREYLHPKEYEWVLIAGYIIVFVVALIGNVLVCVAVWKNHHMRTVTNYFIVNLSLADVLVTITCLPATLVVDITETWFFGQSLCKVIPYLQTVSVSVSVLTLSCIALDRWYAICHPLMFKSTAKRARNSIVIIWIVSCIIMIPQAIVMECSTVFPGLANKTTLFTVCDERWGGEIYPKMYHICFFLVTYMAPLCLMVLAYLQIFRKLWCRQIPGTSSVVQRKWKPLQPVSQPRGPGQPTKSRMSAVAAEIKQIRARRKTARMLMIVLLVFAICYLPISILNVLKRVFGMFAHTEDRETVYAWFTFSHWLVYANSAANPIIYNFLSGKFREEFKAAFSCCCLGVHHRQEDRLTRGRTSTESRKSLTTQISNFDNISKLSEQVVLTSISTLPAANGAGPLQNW
From the text: (§1) Determination of antagonist affinity at human Orexin-1 and 2 receptors using FLIPR
(§2) Adherent Chinese Hamster Ovary (CHO) cells, stably expressing the recombinant human Orexin-1 or human Orexin-2 receptors or Rat Basophilic Leukaemia Cells (RBL) stably expressing recombinant rat Orexin-1 or rat Orexin-2 receptors were maintained in culture in Alpha Minimum Essential Medium (Gibco/Invitrogen, cat. no.; 22571-020), supplemented with 10% decomplemented foetal bovine serum (Life Technologies, cat. no. 10106-078) and 400 μg/mL Geneticin G418 (Calbiochem, cat. no. 345810). Cells were grown as monolayers under 95%:5% air: CO2 at 37° C.
(§3) The sequences of the human orexin 1, human orexin 2, rat orexin 1 and rat orexin 2 receptors used in this example were as published in Sakurai, T. et al (1998) Cell, 92 pp 573 to 585. Some examples were tested against the human orexin 1 receptor as published in Sakurai et al supra with the exception that the amino acid residue at position 280 was alanine and not glycine.
(§4) Cells were seeded into black clear-bottom 384-well plates (density of 20,000 cells per well) in culture medium as described above and maintained overnight (95%:5% air:CO2 at 37° C.). On the day of the experiment, culture medium were discarded and the cells washed three times with standard buffer (NaCl, 145 mM; KCl, 5 mM; HEPES, 20 mM; Glucose, 5.5 mM; MgCl2, 1 mM; CaCl2, 2 mM) added with Probenecid 2.5 mM. The plates were then incubated at 37° C. for 60 minutes in the dark with 2 μM FLUO-4AM dye to allow cell uptake of the FLUO-4AM, which is subsequently converted by intracellular esterases to FLUO-4, which is unable to leave the cells. After incubation, cells were washed three times with standard buffer to remove extracellular dye and 30 μL of buffer were left in each well after washing.
(§5) Compounds of the invention were tested in a final assay concentration range from 1.66×10^−5M to 1.58×10^−11M. Compounds of the invention were dissolved in dimethylsulfoxide (DMSO) at a stock concentration of 10 mM. These stock solutions were serially diluted with DMSO and 1 μL of each dilution was transferred to a 384 well compound plate. Immediately before introducing compound to the cells, buffer solution (50 μl/well) was added to this plate. To allow agonist stimulation of the cells, a stock plate containing a solution of human orexin A (hOrexin A) was diluted with buffer to final concentration just before use. This final concentration of hOrexin A was equivalent to the calculated EC80 for hOrexinA agonist potency in this test system. This value was obtained by testing hOrexinA in concentration response curve (at least 16 replicates) the same day of the experiment.
(§6) The loaded cells were then incubated for 10 min at 37° C. with test compound. The plates were then placed into a FLIPR™ (Molecular Devices, UK) to monitor cell fluorescence (λex=488 nm, λEM=540 nm) (Sullivan E, Tucker E M, Dale I L. Measurement of [Ca^2+]i using the fluometric imaging plate reader (FLIPR). In: Lambert DG (ed.), Calcium Signaling Protocols. New Jersey: Humana Press, 1999, 125-136). A baseline fluorescence reading was taken over a 5 to 10 second period, and then 10 μL of EC80 hOrexinA solution was added. The fluorescence was then read over a […] period.
(§7) Functional responses using FLIPR were measured as peak fluorescence intensity minus basal fluorescence and expressed as a percentage of a non-inhibited Orexin-A-induced response on the same plate. Iterative curve-fitting and parameter estimations were carried out using a four parameter logistic model and Microsoft Excel (Bowen W P, Jerman J C. Nonlinear regression using spreadsheets. Trends Pharmacol. Sci. 1995; 16: 413-417).

human Orexin-1 receptor = target: T2, human Orexin-1 receptor (Homo sapiens, UniProt O43613); assay: Antagonist affinity at human Orexin-1 receptor using FLIPR ([Ca2+]i); assay type: cell-based; conditions: functional pKi from IC50 by modified Cheng-Prusoff correction
T2 sequence (O43613 1-425 A280G): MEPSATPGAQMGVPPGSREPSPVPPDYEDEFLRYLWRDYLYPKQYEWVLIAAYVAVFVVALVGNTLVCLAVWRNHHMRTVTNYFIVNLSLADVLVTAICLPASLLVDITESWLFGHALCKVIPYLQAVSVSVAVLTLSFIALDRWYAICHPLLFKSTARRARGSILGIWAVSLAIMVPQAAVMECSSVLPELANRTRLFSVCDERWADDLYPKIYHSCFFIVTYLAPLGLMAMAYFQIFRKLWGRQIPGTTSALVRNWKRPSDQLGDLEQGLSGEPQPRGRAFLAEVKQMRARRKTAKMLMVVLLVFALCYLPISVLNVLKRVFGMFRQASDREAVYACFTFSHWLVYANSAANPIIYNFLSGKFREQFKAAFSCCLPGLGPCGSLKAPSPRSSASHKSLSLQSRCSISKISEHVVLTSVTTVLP
From the text: as §1, §2, §3, §4, §5, §6
as §7, with “413-417). […]” for “413-417).”

freely-feeding rats = conditions: central administration, 4 hour time period; cited from earlier work
rats [1] = conditions: central administration at the onset of the normal sleep period; cited from earlier work
rats [2] = conditions: cited from earlier work
rats [3] = conditions: cited from earlier work; remark: listed apart in the source

## CCOc1ccc(C)nc1C(=O)N1C[C@@H]2C[C@@H]2C[C@H]1CNc1ncc(C)cn1 [Example 55, N-[((1R,4S,6R)-3-{[3-(ethyloxy)-6-methyl-2-pyridinyl]carbonyl}-3-azabicyclo[4.1.0]hept-4-yl)methyl]-5-methyl-2-pyrimidinamine]
Human Orexin-2 receptor
  Ki: 100 nM
Human Orexin-1 receptor
  fpKi Orexin 1 receptor: 9.1

## Cc1ccc(-c2ncccc2C)c(C(=O)N2C[C@@H]3C[C@@H]3C[C@H]2CNc2ccc(C(F)(F)F)cn2)n1 [Example 51, N-({(1R,4S,6R)-3-[(3,6′-dimethyl-2,3′-bipyridin-2′-yl)carbonyl]-3-azabicyclo[4.1.0]hept-4-yl}methyl)-5-(trifluoromethyl)-2-pyridinamine]
Human Orexin-2 receptor
  Ki: 15.8 nM
Human Orexin-1 receptor
  fpKi Orexin 1 receptor: 9.2

## Cc1ccc(C(=O)N2C[C@@H]3C[C@@H]3C[C@H]2CNc2ccc(C(F)(F)F)cn2)nc1-c1ncccn1 [Example 53, N-[((1R,4S,6R)-3-{[5-methyl-6-(2-pyrimidinyl)-2-pyridinyl]carbonyl}-3-azabicyclo[4.1.0]hept-4-yl)methyl]-5-(trifluoromethyl)-2-pyridinamine]
Human Orexin-2 receptor
  Ki: > 3310 nM
Human Orexin-1 receptor
  fpKi Orexin 1 receptor: 6.0

## orexin-A: polypeptide ligand for the orexin-1 receptor; an agonist of the orexin receptors (QPLPDCCRQKTCSCRLYELLHGAGNHAAGILTL; ends and bridges not checked; cysteine pairing not given here; UniProt O43612 34-66, looked up)
freely-feeding rats
  increase of food intake over control rats receiving vehicle: approximately four-fold
Rats [1]
  arousal (sleep/EEG): dose-related increase in arousal

## Cc1ccc(NC[C@@H]2C[C@H]3C[C@H]3CN2C(=O)c2nc(C)ccc2OCC2CC2)nc1 [Example 54, N-{[(1R,4S,6R)-3-({3-[(cyclopropylmethyl)oxy]-6-methyl-2-pyridinyl}carbonyl)-3-azabicyclo[4.1.0]hept-4-yl]methyl}-5-methyl-2-pyridinamine]
Human Orexin-2 receptor
  Ki: 3.98 nM
Human Orexin-1 receptor
  fpKi Orexin 1 receptor: 9.3

## Cc1cnn(-c2ccc(C)nc2C(=O)N2C[C@@H]3C[C@@H]3C[C@H]2CNc2ccc(C(F)(F)F)cn2)c1 [Example 52, N-[((1R,4S,6R)-3-{[6-methyl-3-(4-methyl-1H-pyrazol-1-yl)-2-pyridinyl]carbonyl}-3-azabicyclo[4.1.0]hept-4-yl)methyl]-5-(trifluoromethyl)-2-pyridinamine]
Human Orexin-2 receptor
  Ki: 0.398 nM
Human Orexin-1 receptor
  fpKi Orexin 1 receptor: 9.2

## CCCOc1ccc(C)nc1C(=O)N1C[C@@H]2C[C@@H]2C[C@H]1CNc1ncc(C(F)(F)F)cn1 [Example 57, N-[((1R,4S,6R)-3-{[6-methyl-3-(propyloxy)-2-pyridinyl]carbonyl}-3-azabicyclo[4.1.0]hept-4-yl)methyl]-5-(trifluoromethyl)-2-pyrimidinamine]
Human Orexin-2 receptor
  Ki: 63.1 nM
Human Orexin-1 receptor
  fpKi Orexin 1 receptor: 9.5

## CCCOc1ccc(C)nc1C(=O)N1C[C@@H]2C[C@@H]2C[C@H]1CNc1cnc(C)c(C)n1 [Example 58, 5,6-dimethyl-N-[((1R,4S,6R)-3-{[6-methyl-3-(propyloxy)-2-pyridinyl]carbonyl}-3-azabicyclo[4.1.0]hept-4-yl)methyl]-2-pyrazinamine]
Human Orexin-2 receptor
  Ki: 1.26 nM
Human Orexin-1 receptor
  fpKi Orexin 1 receptor: 9.0

## Cc1nc2ccc(NC(=O)Nc3ccnc4cccnc34)cc2o1 [SB334867]
Rats [2]
  hedonic eating: potently reduced
Rats [3]
  high-fat pellet self-administration: attenuated

## Cc1coc(-c2ccc(C)nc2C(=O)N2C[C@@H]3C[C@@H]3C[C@H]2CNc2ncc(C(F)(F)F)cn2)n1 [Example 59, N-[((1R,4S,6R)-3-{[6-methyl-3-(4-methyl-1,3-oxazol-2-yl)-2-pyridinyl]carbonyl}-3-azabicyclo[4.1.0]hept-4-yl)methyl]-5-(trifluoromethyl)-2-pyrimidinamine]
Human Orexin-2 receptor
  Ki: 1580 nM
Human Orexin-1 receptor
  fpKi Orexin 1 receptor: 6.0

## CCOc1ccc(C)nc1C(=O)N1C[C@@H]2C[C@@H]2C[C@H]1CNc1ncc(C(F)(F)F)cn1 [Example 56, N-[((1R,4S,6R)-3-{[3-(ethyloxy)-6-methyl-2-pyridinyl]carbonyl}-3-azabicyclo[4.1.0]hept-4-yl)methyl]-5-(trifluoromethyl)-2-pyrimidinamine]
Human Orexin-1 receptor
  fpKi Orexin 1 receptor: 9.5
